In PubChem BioAssay AID1963985 (Molecular Pharmacology Branch, DTP, NCI, 2024):

Tested on: 252836-082-R-J2-PDC tumor spheroids, viability
Assay: Anticancer human tumor 252836-082-R-J2-PDC patient-derived head and neck squamous cell carcinoma cell line growth inhibition [PI3K]
Conditions: spheroids with HUVEC and MSC; for viability, T/C: stronger effect = lower value
In short: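 Stroma-containing spheroids: tumor line, pooled-donor HUVEC, hMSC. Treatments: targeted agents with PI3K inhibitors. Dosing: clinically relevant, half-log spacing, 10 microM ceiling without known Cmax. Read-out: cell viability.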

[1] = curve of first compound, second compound 0.00316 µM
[2] = curve of first compound, second compound 0.01 µM
[3] = curve of first compound, second compound 0.0316 µM
[4] = curve of first compound, second compound 0.1 µM
[5] = curve of first compound, second compound 0.316 µM
[6] = curve of first compound, second compound 1 µM
[7] = second compound 0.00316 µM, first compound 0.0316 µM
[8] = second compound 0.00316 µM, first compound 0.1 µM
[9] = second compound 0.00316 µM, first compound 0.316 µM
[10] = second compound 0.00316 µM, first compound 1 µM
[11] = second compound 0.00316 µM, first compound 3.16 µM
[12] = second compound 0.00316 µM, first compound 10 µM
[13] = second compound 0.01 µM, first compound 0.0316 µM
[14] = second compound 0.01 µM, first compound 0.1 µM
[15] = second compound 0.01 µM, first compound 0.316 µM
[16] = second compound 0.01 µM, first compound 1 µM
[17] = second compound 0.01 µM, first compound 3.16 µM
[18] = second compound 0.01 µM, first compound 10 µM
[19] = second compound 0.0316 µM, first compound 0.0316 µM
[20] = second compound 0.0316 µM, first compound 0.1 µM
[21] = second compound 0.0316 µM, first compound 0.316 µM
[22] = second compound 0.0316 µM, first compound 1 µM
[23] = second compound 0.0316 µM, first compound 3.16 µM
[24] = second compound 0.0316 µM, first compound 10 µM
[25] = second compound 0.1 µM, first compound 0.0316 µM
[26] = second compound 0.1 µM, first compound 0.1 µM
[27] = second compound 0.1 µM, first compound 0.316 µM
[28] = second compound 0.1 µM, first compound 1 µM
[29] = second compound 0.1 µM, first compound 3.16 µM
[30] = second compound 0.1 µM, first compound 10 µM
[31] = second compound 0.316 µM, first compound 0.0316 µM
[32] = second compound 0.316 µM, first compound 0.1 µM
[33] = second compound 0.316 µM, first compound 0.316 µM
[34] = second compound 0.316 µM, first compound 1 µM
[35] = second compound 0.316 µM, first compound 3.16 µM
[36] = second compound 0.316 µM, first compound 10 µM
[37] = second compound 1 µM, first compound 0.0316 µM
[38] = second compound 1 µM, first compound 0.1 µM
[39] = second compound 1 µM, first compound 0.316 µM
[40] = second compound 1 µM, first compound 1 µM
[41] = second compound 1 µM, first compound 3.16 µM
[42] = second compound 1 µM, first compound 10 µM
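Further: spheroids exposed to agents for seven days before readout.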
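Wherever viability, T/C is given: percent of vehicle DMSO control viability so 100% = untreated growth.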

How did the IC50 [1] turn out when `CCCS(=O)(=O)Nc1ccc(F)c(C(=O)c2c[nH]c3ncc(-c4ccc(Cl)cc4)cc23)c1F` + CC(Nc1ccc2c(c1)OCCn1cc(N3C(=O)OCC3C(F)F)nc1-2)C(N)=O was run?
The IC50 was 5210 nM.

And the IC50 [2]?
The IC50 was 5490 nM.

And the IC50 [3]?
Its IC50 is 4300 nM.

What about the IC50 [4] of the same compound?
The IC50 was 3430 nM.

What about the IC50 [5] of the same compound?
Its IC50 is 3840 nM.

What about the IC50 [6] of the same compound?
Its IC50 is less than 31.6 nM.

What about the viability, T/C [7] of the same compound?
Its viability, T/C is 98%.

What about the viability, T/C [8] of the same compound?
The viability, T/C was 90.1%.

And the viability, T/C [9]?
Its viability, T/C is 102%.

And the viability, T/C [10]?
Its viability, T/C is 103%.

What about the viability, T/C [11] of the same compound?
The viability, T/C was 84.1%.

And the viability, T/C [12]?
The viability, T/C was 5.37%.

What about the viability, T/C [13] of the same compound?
Its viability, T/C is 80.5%.

And the viability, T/C [14]?
The viability, T/C was 88.5%.

What about the viability, T/C [15] of the same compound?
Its viability, T/C is 97.6%.

What about the viability, T/C [16] of the same compound?
Its viability, T/C is 100%.

What about the viability, T/C [17] of the same compound?
The viability, T/C was 92.3%.

And the viability, T/C [18]?
The viability, T/C was 4.83%.

What about the viability, T/C [19] of the same compound?
Its viability, T/C is 76.3%.

And the viability, T/C [20]?
Its viability, T/C is 90%.

What about the viability, T/C [21] of the same compound?
The viability, T/C was 87%.

What about the viability, T/C [22] of the same compound?
The viability, T/C was 91.2%.

What about the viability, T/C [23] of the same compound?
The viability, T/C was 66.9%.

And the viability, T/C [24]?
The viability, T/C was 3.26%.

And the viability, T/C [25]?
Its viability, T/C is 71.9%.

What about the viability, T/C [26] of the same compound?
The viability, T/C was 77.4%.

What about the viability, T/C [27] of the same compound?
The viability, T/C was 69.1%.

And the viability, T/C [28]?
The viability, T/C was 66.4%.

What about the viability, T/C [29] of the same compound?
Its viability, T/C is 54.5%.

And the viability, T/C [30]?
The viability, T/C was 4.8%.

What about the viability, T/C [31] of the same compound?
The viability, T/C was 64.4%.

And the viability, T/C [32]?
The viability, T/C was 67.4%.

What about the viability, T/C [33] of the same compound?
The viability, T/C was 65.8%.

And the viability, T/C [34]?
The viability, T/C was 48.9%.

And the viability, T/C [35]?
The viability, T/C was 59.7%.

What about the viability, T/C [36] of the same compound?
The viability, T/C was 4.86%.

What about the viability, T/C [37] of the same compound?
The viability, T/C was 49.1%.

And the viability, T/C [38]?
Its viability, T/C is 48.2%.

And the viability, T/C [39]?
The viability, T/C was 46%.

What about the viability, T/C [40] of the same compound?
The viability, T/C was 46.2%.

And the viability, T/C [41]?
Its viability, T/C is 41.3%.

And the viability, T/C [42]?
The viability, T/C was 5.27%.

What does the source list for `Cn1nccc1Nc1nccc(-c2ccn(C(CO)c3ccc(Cl)c(F)c3)c(=O)c2)n1` (stereo not drawn) + COc1c(OCCCN2CCOCC2)ccc2c3n(c(=NC(=O)c4cnc(N)nc4)nc12)CCN3?
IC50 [1]: > 10000 nM; IC50 [2]: > 10000 nM; IC50 [3]: 4370 nM; IC50 [4]: < 31.6 nM; IC50 [5]: < 31.6 nM; IC50 [6]: < 31.6 nM; viability, T/C [7]: 99.2%; viability, T/C [8]: 86.3%; viability, T/C [9]: 98%; viability, T/C [10]: 90%; viability, T/C [11]: 78.3%; viability, T/C [12]: 70.3%; viability, T/C [13]: 77.4%; viability, T/C [14]: 78.3%; viability, T/C [15]: 81.7%; viability, T/C [16]: 79.1%; viability, T/C [17]: 75.8%; viability, T/C [18]: 50.2%; viability, T/C [19]: 53%; viability, T/C [20]: 65.4%; viability, T/C [21]: 56.3%; viability, T/C [22]: 56.8%; viability, T/C [23]: 57.8%; viability, T/C [24]: 31.1%; viability, T/C [25]: 40.4%; viability, T/C [26]: 33.8%; viability, T/C [27]: 38.5%; viability, T/C [28]: 34.8%; viability, T/C [29]: 31.9%; viability, T/C [30]: 19.5%; viability, T/C [31]: 15.8%; viability, T/C [32]: 14.1%; viability, T/C [33]: 15.3%; viability, T/C [34]: 10.4%; viability, T/C [35]: 7.12%; viability, T/C [36]: 4.49%; viability, T/C [37]: 4.18%; viability, T/C [38]: 4.13%; viability, T/C [39]: 3.93%; viability, T/C [40]: 1.52%; viability, T/C [41]: 1.98%; viability, T/C [42]: 0.32%

How did the viability, T/C (compound 0.00316 µM) turn out when `COc1c(OCCCN2CCOCC2)ccc2c3n(c(=NC(=O)c4cnc(N)nc4)nc12)CCN3` was run?
Its viability, T/C is 96.6% [middle of 8 runs].

And the viability, T/C (compound 0.01 µM)?
The viability, T/C was 80.7% [middle of 8 runs].

What about the viability, T/C (compound 0.0316 µM) of the same compound?
Its viability, T/C is 59.6% [middle of 8 runs].

What about the viability, T/C (compound 0.1 µM) of the same compound?
Its viability, T/C is 36.6% [middle of 8 runs].

What about the viability, T/C (compound 0.316 µM) of the same compound?
The viability, T/C was 15.3% [middle of 7 runs].

What about the viability, T/C (compound 1 µM) of the same compound?
The viability, T/C was 4.26% [middle of 8 runs].

What about the IC50 (compound alone, run of 06/13/2023) of the same compound?
The IC50 was 47.6 nM [middle of 8 runs].

Which IC50 [1] does the source give for `Cn1ncc(Cl)c1-c1cc(C(=O)NC(CN)Cc2cccc(F)c2)sc1Cl` (stereo not drawn) + CC(Nc1ccc2c(c1)OCCn1cc(N3C(=O)OCC3C(F)F)nc1-2)C(N)=O here?
The IC50 was 383 nM.

What about the IC50 [2] of the same compound?
The IC50 was 294 nM.

And the IC50 [3]?
Its IC50 is 328 nM.

And the IC50 [4]?
The IC50 was 160 nM.

And the IC50 [5]?
Its IC50 is less than 31.6 nM.

And the IC50 [6]?
Its IC50 is less than 31.6 nM.

And the viability, T/C [7]?
The viability, T/C was 82.5%.

And the viability, T/C [8]?
Its viability, T/C is 67.8%.

And the viability, T/C [9]?
The viability, T/C was 47.6%.

What about the viability, T/C [10] of the same compound?
Its viability, T/C is 39.8%.

And the viability, T/C [11]?
The viability, T/C was 29.7%.

And the viability, T/C [12]?
The viability, T/C was 9.51%.

And the viability, T/C [13]?
Its viability, T/C is 80.8%.

And the viability, T/C [14]?
The viability, T/C was 62.8%.

What about the viability, T/C [15] of the same compound?
Its viability, T/C is 50%.

What about the viability, T/C [16] of the same compound?
The viability, T/C was 33.6%.

What about the viability, T/C [17] of the same compound?
Its viability, T/C is 26.7%.

And the viability, T/C [18]?
The viability, T/C was 12.8%.

And the viability, T/C [19]?
Its viability, T/C is 74.2%.

And the viability, T/C [20]?
The viability, T/C was 61.8%.

And the viability, T/C [21]?
The viability, T/C was 48.8%.

What about the viability, T/C [22] of the same compound?
The viability, T/C was 39.3%.

And the viability, T/C [23]?
The viability, T/C was 26.6%.

What about the viability, T/C [24] of the same compound?
Its viability, T/C is 11.5%.

What about the viability, T/C [25] of the same compound?
The viability, T/C was 66.9%.

And the viability, T/C [26]?
Its viability, T/C is 53.3%.

And the viability, T/C [27]?
Its viability, T/C is 45.8%.

And the viability, T/C [28]?
Its viability, T/C is 26.9%.

What about the viability, T/C [29] of the same compound?
The viability, T/C was 24.7%.

And the viability, T/C [30]?
The viability, T/C was 8%.

What about the viability, T/C [31] of the same compound?
The viability, T/C was 45.5%.

And the viability, T/C [32]?
The viability, T/C was 43.3%.

And the viability, T/C [33]?
The viability, T/C was 34.3%.

What about the viability, T/C [34] of the same compound?
The viability, T/C was 25.6%.

What about the viability, T/C [35] of the same compound?
Its viability, T/C is 22.4%.

And the viability, T/C [36]?
Its viability, T/C is 14.1%.

What about the viability, T/C [37] of the same compound?
Its viability, T/C is 40.9%.

And the viability, T/C [38]?
Its viability, T/C is 36.8%.

And the viability, T/C [39]?
Its viability, T/C is 30.3%.

And the viability, T/C [40]?
Its viability, T/C is 24.8%.

What about the viability, T/C [41] of the same compound?
The viability, T/C was 23.7%.

And the viability, T/C [42]?
The viability, T/C was 10.5%.
